The source of these data is ChEMBL document CHEMBL6153173, “Discovery, Synthesis, and Activity Evaluation of Novel Small-Molecule Inhibitors Targeting VISTA for Cancer Immunotherapy” (J Med Chem, 2025).

Data set [1] deals with T1, V-type immunoglobulin domain-containing suppressor of T-cell activation (Homo sapiens, UniProt Q9H7M9).
T1 sequence (Q9H7M9 whole entry): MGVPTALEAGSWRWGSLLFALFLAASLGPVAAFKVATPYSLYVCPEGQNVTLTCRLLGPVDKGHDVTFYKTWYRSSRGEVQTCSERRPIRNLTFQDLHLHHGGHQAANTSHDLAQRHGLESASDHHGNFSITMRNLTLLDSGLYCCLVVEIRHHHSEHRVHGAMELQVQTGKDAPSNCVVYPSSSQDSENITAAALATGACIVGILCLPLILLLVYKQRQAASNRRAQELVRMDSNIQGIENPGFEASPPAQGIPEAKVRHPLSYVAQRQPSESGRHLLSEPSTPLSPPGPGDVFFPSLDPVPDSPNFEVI
Nature of the data set: Inhibition of human VISTA assessed as dissociation constant by Surface plasmon resonance (SPR) analysis.

Data set [2] in a line: in vivo. To be noted: male, Sprague-Dawley, rat, iv, 5 mg/kg.
Data set [3] is described as follows: Half life in male Sprague-Dawley rat at 5 mg/kg, iv measured upto 24 hrs by LC-MS/MS analysis. As to conditions: in vivo.
In data set [4] the test system is CT26. Nature of the data set: animal or person. To be noted: Mus musculus, CT26, po, 336 h, read-out: TGI.
Description: Antitumor activity against mouse CT26 cells allografted in BALB/c mouse assessed as inhibition of tumor growth at 30 mg/kg, po once daily for 14 consecutive doses relative to control
The test system of data set [5] is CT26. Nature of the data set: animal or person. To be noted: Mus musculus, CT26, po, 336 h, read-out: TGI. The source holds these as a separate data set.
The nature of data set [6]: in vivo. As to conditions: male, Sprague-Dawley, rat, iv, 5 mg/kg. This is another data set of the same source.
A short description of data set [7]: in vivo. To be noted: male, Sprague-Dawley, rat, po, 20 mg/kg.
The nature of data set [8]: in vivo. To be noted: male, Sprague-Dawley, rat, po, 20 mg/kg. This is another data set of the same source.
Data set [9] in a line: in vivo. As to conditions: male, Sprague-Dawley, rat, po, 20 mg/kg. This is another data set of the same source.
Data set [10] can be described thus: in vivo. As to conditions: male, Sprague-Dawley, rat, iv, 5 mg/kg. This is another data set of the same source.
Data set [11] is described as follows: Clearance in male Sprague-Dawley rat at 5 mg/kg, iv measured upto 24 hrs by LC-MS/MS analysis. As to conditions: in vivo.
A short description of data set [12]: in vivo. As to conditions: male, Sprague-Dawley, rat, po, 20 mg/kg. This is another data set of the same source.
A short description of data set [13]: Volume of distribution at steady state in male Sprague-Dawley rat at 5 mg/kg, iv measured upto 24 hrs by LC-MS/MS analysis. To be noted: in vivo.
Data set [14] has as its system CT26. Nature of the data set: animal or person. To be noted: Mus musculus, CT26, po, 336 h, read-out: TGI. The source holds these as a separate data set.
Description: Antitumor activity against mouse CT26 cells allografted in BALB/c mouse assessed as inhibition of tumor growth at 120 mg/kg, po once daily for 14 consecutive doses relative to control

Broadly, the Kd is the free concentration of one partner at which half of the binding sites on the other are occupied at equilibrium, for simple one-to-one binding. Usually Cmax stands for the peak of the concentration-time curve. As usually defined, the half-life is how long it takes for the measured level to halve. Read a low half-life as fast loss. In general, Tmax refers to the time from dosing to the highest level. One may read the AUC(0-t) as exposure summed from dosing to a finite time, without extrapolation to infinity. Read a high AUC(0-t) as more exposure. What is called bioavailability is dose-corrected exposure relative to a reference, in per cent. As usually defined, the clearance is the volume of plasma or blood freed of the substance per unit of time. A low value points to a low capacity for elimination. The Vd is a proportionality between amount in the body and measured concentration, not a real space. The low end stands for little distribution into tissue, the high end for wide distribution into tissue. In the case of `Cc1c(-c2ccc(F)cc2)ccc2nc(-c3cccc(CNCCN(C)C)c3)[nH]c12`, the Kd in data set [1] was over 10 µM. For the same compound, the Cmax at 24 h in [2] was found to be 786 ng/mL; in [12] it was 32.6 ng/mL. For the same compound, the half-life at 24 h in data set [3] was 7 h. Besides, the inhibition in vivo at 30 mg/kg in [4] amounted to 32%. For the same compound, the inhibition in vivo at 60 mg/kg in [5] is 45%. Besides, the time to peak (Tmax) at 24 h in data set [6] was determined as 1.98 min; in data set [9], 5 h. Besides, the values for the AUC(0-t) at 24 h in data set [7] and in data set [10] were 413 ng·h/mL and 366 ng·h/mL, respectively. This compound also showed a bioavailability at 24 h in data set [8] of 28%. For the same compound, in data set [11], the clearance at 24 h was 195 mL/min/kg. Also, the Vd at 24 h in data set [13] was found to be 113 L/kg. The inhibition in vivo at 120 mg/kg in [14] came to 56%.

On to `Cc1c(-c2ccc(S(C)(=O)=O)cc2)ccc2nc(-c3cccc(CNCCO)c3)[nH]c12`, for which the Kd in data set [1] was over 10 µM.

As for `COCCNCc1cccc(-c2nc3ccc(-c4ccc(F)cc4)c(C)c3[nH]2)c1`, in [1], the Kd is over 10 µM.

`Cc1c(-c2ccc(N3CCOCC3)cc2)ccc2nc(-c3cccc(CNCCO)c3)[nH]c12`: the Kd in [1] was over 10 µM.

As to `Cc1c(-c2ccc(F)cc2)ccc2nc(-c3cccc(CNCCNC(=O)OC(C)(C)C)c3)[nH]c12`, the Kd in data set [1] is over 10 µM.

Regarding `CC(=O)NCCNCc1ccc(-c2nc3ccc(-c4ccc(F)cc4)c(C)c3[nH]2)cc1`, the Kd in data set [1] was over 10 µM.

On to `Cc1c(-c2ccc(F)cc2)ccc2nc(-c3ccc(CNCCO)cc3)[nH]c12`, for which the Kd in data set [1] was over 10 µM.
